Test results as given in patent US20230192660A1 (priority 2020, published 2023).

Each compound was assayed against SARS-CoV-2 Mpro C145A mutant (Severe acute respiratory syndrome coronavirus 2, UniProt P0DTD1, C3408A).
Type: binding

In order of rising “ΔTm Mpro C145A” value:
1. CC1(C)[C@@H]2[C@@H](C(=O)NC(C[C@@H]3CCNC3=O)C(=O)C(N)=O)N(C(=O)CNc3c(F)cc(F)cc3F)C[C@@H]21 (stereo partly shown) [ML104]  0 °C
2. CNC(=O)C(=O)[C@H](C[C@@H]1CCNC1=O)NC(=O)[C@@H]1[C@@H]2[C@H](CN1C(=O)CCc1ccccc1)C2(C)C [ML102m]  0 °C
3. CC1(C)[C@@H]2[C@@H](C(=O)N[C@@H](C[C@@H]3CCNC3=O)C(=O)C(N)=O)N(C(=O)CCc3ccccc3)C[C@@H]21 [ML102]  0 °C
4. COc1cccc2[nH]c(C(=O)N3C[C@H]4[C@@H]([C@H]3C(=O)N[C@@H](C[C@@H]3CCNC3=O)C(=O)C(N)=O)C4(C)C)cc12 [ML105]  0 °C
5. CNC(=O)C(=O)[C@H](C[C@@H]1CCNC1=O)NC(=O)[C@@H]1[C@@H]2[C@H](CN1C(=O)CNc1c(F)cc(F)cc1F)C2(C)C [ML104m]  0 °C
6. CC(C)(C)[C@H](NC(=O)C12CC(C1)C2)C(=O)N1C[C@H]2[C@@H]([C@H]1C(=O)N[C@@H](C[C@@H]1CCNC1=O)C(=O)C(N)=O)C2(C)C [ML1002]  0.1 °C
7. CNC(=O)C(=O)[C@H](C[C@@H]1CCNC1=O)NC(=O)[C@@H]1[C@@H]2[C@H](CN1C(=O)[C@@H](NC(=O)C13CC(C1)C3)C(C)(C)C)C2(C)C [ML1002m]  0.1 °C
